# Key:
# Rat NHE3 = biological target: T1, Rat NHE3 (Rattus norvegicus, UniProt P26433); assay: Cell-based NHE3 activity under prompt conditions (OK cells, BCECF pH recovery), rat NHE3; conditions: prompt conditions
# T1 construct: expressed in transfected cells; host or cells: Opossum kidney (OK) cells (ATCC), electroporation
# Summary of the method: (§1)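 OK cells electroporated with rat or human NHE3 gene, loaded 30 min at room temperature with 5 μM BCECF-AM in NH4Cl-HEPES pH 7.4.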
# Human NHE3 = biological target: T2, Human NHE3 (Homo sapiens, UniProt P48764); assay: Cell-based NHE3 activity under prompt conditions (OK cells, BCECF pH recovery), human NHE3; conditions: prompt conditions
# T2 construct: expressed in transfected cells; host or cells: Opossum kidney (OK) cells (ATCC), electroporation
# T2 sequence (P48764 26-834): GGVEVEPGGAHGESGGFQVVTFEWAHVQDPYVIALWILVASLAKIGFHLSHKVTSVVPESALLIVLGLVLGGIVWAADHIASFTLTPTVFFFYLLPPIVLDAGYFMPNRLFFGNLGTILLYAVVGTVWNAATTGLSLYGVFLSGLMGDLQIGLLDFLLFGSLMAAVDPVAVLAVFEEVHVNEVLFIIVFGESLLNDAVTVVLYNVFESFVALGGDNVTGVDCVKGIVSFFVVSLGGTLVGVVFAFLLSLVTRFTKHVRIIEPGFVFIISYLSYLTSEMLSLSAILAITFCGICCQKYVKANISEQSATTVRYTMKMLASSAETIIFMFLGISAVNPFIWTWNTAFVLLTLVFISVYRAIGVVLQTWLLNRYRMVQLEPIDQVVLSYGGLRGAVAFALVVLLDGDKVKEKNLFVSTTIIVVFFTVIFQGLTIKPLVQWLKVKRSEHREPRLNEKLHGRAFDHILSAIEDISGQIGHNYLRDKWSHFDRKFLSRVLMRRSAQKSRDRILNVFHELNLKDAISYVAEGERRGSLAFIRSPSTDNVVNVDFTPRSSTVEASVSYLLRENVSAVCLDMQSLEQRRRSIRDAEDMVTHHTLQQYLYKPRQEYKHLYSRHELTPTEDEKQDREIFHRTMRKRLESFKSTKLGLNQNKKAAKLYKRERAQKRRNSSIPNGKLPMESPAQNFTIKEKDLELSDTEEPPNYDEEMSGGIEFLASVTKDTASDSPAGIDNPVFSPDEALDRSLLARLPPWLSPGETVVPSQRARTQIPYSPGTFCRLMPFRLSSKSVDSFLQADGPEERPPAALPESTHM
# Summary of the method: as §1
# [1] = test system: absorption of sodium from the intestinal lumen; assay: Inhibition of intestinal sodium absorption: urinary sodium (uNa) 16 h after single oral dose in rats; format: in vivo, rat; conditions: oral gavage, 16 h post-dose
# Summary of the method: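 Eight-week-old Sprague-Dawley rats (n=6) given single oral gavage of compound or water vehicle in the late afternoon, then kept in metabolic cages with chow and water ad libitum. Urine collected over 16 h; sodium quantified by ion chromatography and expressed as % of vehicle mean, compared by one-way ANOVA with Dunnett's test.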
# [2] = test system: absorption of sodium from the intestinal lumen; assay: Fecal form score (FFS) 16 h after oral dose in rats; format: in vivo, rat; conditions: oral gavage, 16 h post-dose, scale 1-5
# Summary of the method: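 Eight-week-old Sprague-Dawley rats (n=6) dosed by oral gavage with compound or water vehicle between 4 and 5 PM, then housed in metabolic cages with food and water ad libitum. At 16 h, fecal form scored 1 (normal pellet) to 5 (liquid streams) by two observers; group mean reported.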
# [3] = test system: phosphorus and calcium levels in the urine of rats; assay: Urinary excretion of phosphate and calcium in rats (16 h overnight urine); format: in vivo, rat; conditions: rats, oral gavage, 16 h post-dose
# T1 sequence (P26433 29-831): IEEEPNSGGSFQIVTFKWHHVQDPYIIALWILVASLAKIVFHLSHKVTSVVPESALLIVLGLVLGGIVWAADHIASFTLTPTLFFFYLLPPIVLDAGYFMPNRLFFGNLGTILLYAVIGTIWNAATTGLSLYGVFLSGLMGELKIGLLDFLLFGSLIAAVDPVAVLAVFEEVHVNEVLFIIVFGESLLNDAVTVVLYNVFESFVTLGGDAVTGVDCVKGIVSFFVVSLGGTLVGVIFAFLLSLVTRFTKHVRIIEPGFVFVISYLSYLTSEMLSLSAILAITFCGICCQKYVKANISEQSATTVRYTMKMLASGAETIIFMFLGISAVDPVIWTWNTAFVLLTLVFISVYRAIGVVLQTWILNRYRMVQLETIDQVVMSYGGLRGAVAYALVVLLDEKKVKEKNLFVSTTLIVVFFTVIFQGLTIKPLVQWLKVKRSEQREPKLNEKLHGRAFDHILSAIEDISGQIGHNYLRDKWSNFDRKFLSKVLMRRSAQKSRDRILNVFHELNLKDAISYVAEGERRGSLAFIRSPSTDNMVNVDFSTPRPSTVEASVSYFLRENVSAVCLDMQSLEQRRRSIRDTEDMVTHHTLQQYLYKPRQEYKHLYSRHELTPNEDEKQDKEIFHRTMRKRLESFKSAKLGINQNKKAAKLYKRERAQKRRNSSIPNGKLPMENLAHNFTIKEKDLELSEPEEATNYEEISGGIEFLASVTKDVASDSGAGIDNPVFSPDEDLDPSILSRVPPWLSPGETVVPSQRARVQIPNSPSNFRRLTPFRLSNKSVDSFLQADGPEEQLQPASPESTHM
SMILES,IC50 (Rat NHE3; read-out: Prompt Rat NHE3 pIC50 (converted)) [nM],Prompt Human NHE3 pIC50 (Human NHE3),Prompt Rat NHE3 pIC50 (Rat NHE3),Urine Na % of control ([1]; dose 1 mg/kg) [%],Urine Na % of control ([1]; dose 3 mg/kg) [%],Urine Na % of control ([1]; dose 10 mg/kg) [%],Fecal Form Score average ([2]; dose 1 mg/kg),Fecal Form Score average ([2]; dose 3 mg/kg),Fecal Form Score average ([2]; dose 10 mg/kg),Urine P % of control ([3]; dose 1 mg/kg) [%],Urine P % of control ([3]; dose 3 mg/kg) [%],Urine P % of control ([3]; dose 10 mg/kg) [%]
O=C(NCCCCNC(=O)NCCOCCOCCOCCNS(=O)(=O)c1ccc(O[C@H]2c3ccccc3C[C@@H]2N2CCCCC2)cc1)NCCOCCOCCOCCNS(=O)(=O)c1ccc(O[C@H]2c3ccccc3C[C@@H]2N2CCCCC2)cc1 [compound 72],5.01,8.25,,82,74,33,1,2,1,99,115,43
CN1Cc2c(Cl)cc(Cl)cc2[C@H](c2cccc(S(=O)(=O)NCCOCCOCCOCCn3cc(CN(Cc4cn(CCOCCOCCOCCNS(=O)(=O)c5cccc([C@@H]6CN(C)Cc7c(Cl)cc(Cl)cc76)c5)nn4)Cc4cnnn4CCOCCOCCOCCNS(=O)(=O)c4cccc([C@@H]5CN(C)Cc6c(Cl)cc(Cl)cc65)c4)nn3)c2)C1 [compound 73],,6.30,5.30,,,74,,,2,,,49
CN1Cc2c(Cl)cc(Cl)cc2[C@H](c2cccc(S(=O)(=O)NCCOCCOCCNC(=O)CN(CC(=O)NCCOCCOCCNS(=O)(=O)c3cccc([C@@H]4CN(C)Cc5c(Cl)cc(Cl)cc54)c3)CC(=O)NCCOCCOCCNS(=O)(=O)c3cccc([C@@H]4CN(C)Cc5c(Cl)cc(Cl)cc54)c3)c2)C1 [compound 74],,6.80,6.30,,,30,,,3,,,44
CN1Cc2c(Cl)cc(Cl)cc2[C@H](c2cccc(S(=O)(=O)NCCOCCOCCNC(=O)NCCN(CCNC(=O)NCCOCCOCCNS(=O)(=O)c3cccc([C@@H]4CN(C)Cc5c(Cl)cc(Cl)cc54)c3)CCNC(=O)NCCOCCOCCNS(=O)(=O)c3cccc([C@@H]4CN(C)Cc5c(Cl)cc(Cl)cc54)c3)c2)C1 [compound 76],,6.40,5.60,58,40,12,1,2,3,96,89,61

# More lines, main results first:
IC50 (Rat NHE3; read-out: Prompt Rat NHE3 pIC50 (converted)) [nM],Prompt Human NHE3 pIC50 (Human NHE3),Prompt Rat NHE3 pIC50 (Rat NHE3),SMILES,Urine Na % of control ([1]; dose 1 mg/kg) [%],Urine Na % of control ([1]; dose 3 mg/kg) [%],Urine Na % of control ([1]; dose 10 mg/kg) [%],Fecal Form Score average ([2]; dose 1 mg/kg),Fecal Form Score average ([2]; dose 3 mg/kg),Fecal Form Score average ([2]; dose 10 mg/kg),Urine P % of control ([3]; dose 1 mg/kg) [%],Urine P % of control ([3]; dose 3 mg/kg) [%],Urine P % of control ([3]; dose 10 mg/kg) [%]
,7.35,6.25,CN1Cc2c(Cl)cc(Cl)cc2[C@H](c2cccc(S(=O)(=O)NCCOCCOCCNC(=O)NCCCN(CCCNC(=O)NCCOCCOCCNS(=O)(=O)c3cccc([C@@H]4CN(C)Cc5c(Cl)cc(Cl)cc54)c3)CCCNC(=O)NCCOCCOCCNS(=O)(=O)c3cccc([C@@H]4CN(C)Cc5c(Cl)cc(Cl)cc54)c3)c2)C1 [compound 77],80,36,17,2,2,4,82,79,41
,6.50,6.00,CN1Cc2c(Cl)cc(Cl)cc2[C@H](c2cccc(S(=O)(=O)NCCOCCOCCNC(=O)CC(O)(CC(=O)NCCOCCOCCNS(=O)(=O)c3cccc([C@@H]4CN(C)Cc5c(Cl)cc(Cl)cc54)c3)C(=O)NCCOCCOCCNS(=O)(=O)c3cccc([C@@H]4CN(C)Cc5c(Cl)cc(Cl)cc54)c3)c2)C1 [compound 78],,,53,,,2,,,39

# Reference: patent US20240366589A1, “NHE3-BINDING COMPOUNDS AND METHODS FOR INHIBITING PHOSPHATE TRANSPORT” (Ardelyx, Inc., priority 2013, published 2024)
